Experimental data as given in a melting point compilation (Tetko et al.; mined from patent text by program, amines drawn as free bases though some values may be those of a salt).

| melting point [°C] | Compound |
| --- | --- |
| 179 to 180 | O=C(NC1=NCCCN1)Nc1c(Cl)cccc1Cl |
| 149 to 150 | NC(=NCC(F)(F)F)Nc1ccnc(OCCn2ccnc2)n1 |
| 243 to 244 | CCC(C)(CC)c1cc(NC(=O)c2c(OC)cccc2OC)sn1 |
| 110 to 112 | C=CCOc1cc(NC(C)=O)c(Cl)cc1C(=O)OC |
| 247 to 248 | CCCCc1nccn1-c1nc(Cl)nc2nc[nH]c12 |
| 200 to 203 | CON=C(C)c1cc(-c2ccc(S(C)(=O)=O)cc2)c(-c2ccc(F)cc2)s1 |
| 256 | O=C(c1ccc(Cl)cc1)c1ccc2[nH]c(=O)nc(-c3cccc(Cl)c3)c2c1 |
| 145 to 146 | COc1ccc(CO)cc1OCc1nc(-c2ccco2)oc1C |
| 51.3 | ClC(Cl)=CCOc1cc(Cl)c(OCC=Cc2ccccc2)c(Cl)c1 |
| 78 | COc1ccc(Cc2cc(S)ccc2OC)cc1 |
| 69 to 70 | COC(=O)COc1ccc(I)cc1 |
| 135 to 137 | O=c1c(N2CCNCC2)nc2ccccc2n1-c1ccccc1Cl |
| 117 to 118 | COC(=O)C1CC(=O)C(N=Nc2ccccc2)=C(O)C1 (stereo not drawn) |
| 145 to 146 | CCCc1nc2c(N)nc(C)c(C)c2n1CCCCCS(C)(=O)=O |
| 113 | CC(=O)c1ccc(OCC(=O)NC2CCN(Cc3ccc(Cl)c(Cl)c3)CC2)cc1 |
| 187 to 190 | COC(=O)NC1=NCC(c2cccc3ccccc23)N1C (stereo not drawn) |
| 107 to 108 | CC(C)(O)c1cccc(S(N)(=O)=O)c1 |
| > 250 | Cc1cc(C)cc(Nc2cccc3c2OC(CN)C3)c1 (stereo not drawn) |
| 137 to 148 | CS(=O)(=O)Nc1cccc(-c2ccc(S(=O)(=O)n3ccc(C=CC(=O)NO)c3)cc2)c1 |
| 106 to 107 | COc1ccc(C2CCc3c(OC(C)=O)cc(OC(C)=O)cc3O2)cc1OC(C)=O (stereo not drawn) |
| 130 to 132 | CCOC(=O)C(C#N)C1(C#N)C(=O)N(Cc2ccc(F)cc2)c2c(C)cccc21 (stereo not drawn) |
| 121 to 122 | Cn1cc(SCc2ccccc2)c(=O)c(-c2cccc(C(F)(F)F)c2)c1 |
| 230 to 231 | Cc1cn(C)c(C(=O)NS(=O)(=O)c2ccccc2Cl)n1 |
| 33 to 34 | CCCCCCCCCCOc1ccc(OCCCC#CCOC)cc1 |
| 165 to 167 | ON=Cc1ccc2c(c1)ncn2-c1cccc(CNCc2ccc(F)c(F)c2)c1 |

| melting point [°C] | Compound |
| --- | --- |
| 168 to 170 | O=C(O)c1cccc(NC(=O)C(CS)Cc2ccc(F)cc2F)c1 (stereo not drawn) |
| 158 to 160 | CCc1ncn(Nc2cccc(C)c2)c1-c1ccccc1 |
| 142 to 143 | CN(Cc1cc(C(F)(F)F)cc(C(F)(F)F)c1)C(=O)c1nc(Cl)c2ccccc2c1-c1ccc(F)cc1 |
| 115 | CCCCC[C@@H](CNC(=O)Nc1c(OC(C)C)ccc2c1CCCC2)c1cccc2c1OCO2 |
| > 280 | Cc1c(N)c(F)cc2c(=O)c(C(=O)O)cn(-c3cc(O)c(F)cc3F)c12 |
| 103 to 104 | Cc1oc(-c2ccccc2)nc1COc1nn(Cc2ccc(Oc3ccccc3)cc2)cc1CO |
| 135 to 137 | Cc1ccc(NC(=O)N(C)C(c2cnc(C(F)F)nc2Cl)C(C)C)cc1 (stereo not drawn) |
| 201 | CCOc1ccc(S(=O)(=O)N2CCN(C)CC2)cc1C(=O)O |
| > 260 | CC(C)Cc1ccccc1-n1c(=O)[nH]c2c(C(N)=O)nc(-c3cccc(O)c3)nc21 |
| 30 to 32 | C=CC(O)c1ccc2ccccc2c1 (stereo not drawn) |
| 245 to 247 | CCOC(=O)c1ccc2cc(-c3cccc4ccccc34)ccn2c1=O |
| 236 | O=C(O)C=Cc1cc(=O)c(OCc2ccccc2)c[nH]1 |
| 103 to 104 | CCOP(=O)(/C=C/c1cn(-c2ccccc2)nc1OCc1ccc(OCc2cn(-c3ccccn3)nc2C)c(OC)c1)OCC |
| 57 to 58 | CC(CNCc1ccccc1O)NCc1ccccc1O (stereo not drawn) |
| 100 to 110 | CC(=O)OC1COC(n2c(Br)nc3cc(Cl)c(Cl)cc32)C(OC(C)=O)C1OC(C)=O (stereo not drawn) |
| 226 to 228 | CCCNC(=S)Nc1nc2ccc(OC(F)(F)F)cc2s1 |
| 149 to 150 | CCOc1nc2ccccc2nc1NC(=O)N1CCN(c2cc(OC)cc(OC)c2)CC1 |
| 48.5 to 50 | COc1ccc(CC(C)(C)CO)cc1OC |
| 130 to 132 | CC(=O)Oc1ccc(N2CCC(=O)c3ccccc32)cc1 |
| 187 to 189 | O=C(O)Cc1ccc2c(c1)C(=O)c1cc(Cl)ccc1CS2 |
| 148 to 150 | COc1ccc(C(=O)C23CC4CC(C2)CC(C(=O)c2ccc(OC)cc2)(C4)C3)cc1 |
| 99 to 100 | C[Si](C)(C)OC1(C#N)CCOc2c(Cl)cc(-c3ccccc3)cc21 (stereo not drawn) |
| 209 to 211 | Cc1c(C=NO)c2cc(Br)ccc2n1-c1ccc(O)cc1 |
| 163 to 164 | O=C(O)COc1c(Br)cc(C(=O)c2c(CCc3ccccc3)oc3ccccc23)cc1Br |
| 45 to 50 | CC(C)(Cc1ccccc1)C(=O)C(Cc1ccccc1)n1cncn1 (stereo not drawn) |

| melting point [°C] | Compound |
| --- | --- |
| 73 to 75 | CS(=O)(=O)c1ccc(-c2cc(COCCO)nn2CC2CCCCC2)cc1 |
| 109 | Fc1ccccc1Cn1nc(-c2nc(C(F)(F)F)cc(C(F)(F)F)n2)c2cccnc21 |
| 348 to 350 | O=c1[nH]nc2c3cccc(Cl)c3[nH]c(=O)n12 |
| 305 to 308 | N#Cc1sc(N2CCCC2)nc1N |
| 164 to 167 | Nc1ccc(S(=O)(=O)CCO)cc1C(=O)O |
| 96 to 100 | C[C@H](NC(=O)c1ccc[nH]1)C(=O)NC(C=O)CC(=O)O (stereo partly drawn) |
| 169 to 171 | Nc1ccc(C(=O)O)c2ccccc12 |
| 167 to 172 | CC(=O)Nc1c(C)cc(F)cc1[N+](=O)[O-] |
| 258 to 264 | CCCN1C(=O)N2C(=NCC2c2ccccc2)c2[nH]cnc21 (stereo not drawn) |
| 250 to 252 | CC(C)NC1=NS(=O)(=O)c2ccc(Oc3ccccc3)cc2N1 |
| 210 to 211 | O=C(O)/C=C/c1ccc(Oc2c(-c3ccccc3)c(C(F)(F)F)cc3ccccc23)cc1 |
| 115 to 116 | O=C(OCC=Cc1ccccc1)C(=C1NCCCS1)[N+](=O)[O-] |
| 110 to 113 | CC(C(=O)O)c1ccc(-c2ccc(F)cc2F)cc1 (stereo not drawn) |
| 95.5 to 96.5 | CC(C)n1nc(C#Cc2cccc(F)c2)ccc1=O |
| 253 to 257 | C=Cc1cccc(-n2cnc(-c3cnc4[nH]cc(C(=O)N[C@@H](C)C(C)(C)C)c4n3)c2)c1 |
| 39.4 | C#CCSc1nc(-c2ccccc2)no1 |
| 133 to 134 | COc1ccccc1N1CCN(CC(O)COc2ccc(OCc3ccccc3)c(C(C)(C)C)c2)CC1 (stereo not drawn) |
| 98 to 99 | CCc1oc2ccccc2c1C(O)c1ccccc1 (stereo not drawn) |
| 116 to 118 | CCOC(=O)C=Cc1cc(C=CC(=O)OC(C)(C)C)cc(Oc2cccnc2)c1 |
| 98 to 99 | COc1ccc(C2=CCN(c3ccc(Cl)c(Cl)c3)C2=O)cc1OCCN1CCCCC1 |
| 211 to 213 | O=C(O)c1cc(OCc2ccccc2)cc(OCc2ccccc2)c1 |
| 68 to 71 | Brc1ccc(CN2CCOCC2)cc1 |
| 110 to 111 | COc1cc(C(=O)c2cnc3ccccc3c2)ccc1OCc1ccccc1 |
| 58 to 59 | COC(=O)Cc1cn(Cc2ccc(OCc3ccccc3)cc2)nc1-c1ccc(F)cc1 |
| 119 to 121 | O=C(Nc1cc2ncc(CN3CCCC3)cc2cc1F)c1ccc(Br)cc1 |

| melting point [°C] | Compound |
| --- | --- |
| 193 | O=C(Nc1c(Br)cc(Br)cc1C(=O)NCC1CCCCC1)N[C@@H](Cc1ccc(NC(=O)c2c(Cl)cccc2Cl)cc1)C(=O)O |
| 83 to 86 | Cc1cc(Oc2cccc(C(F)(F)F)c2)nn1C(=O)Nc1cccc([N+](=O)[O-])c1 |
| 175 to 176 | CN1CCn2nc(Nc3cc(Cl)nn(C)c3=O)cc2C1 |
| 280 to 282 | O=C(O)CCc1c(C(=O)O)[nH]c2cc(I)cc(I)c12 |
| 230 to 231 | CNC(=O)c1cccc(NC(=O)Cc2c(C)ccc3ccccc23)c1 |
| 112 to 114 | O=C1Cn2cncc2CN1Cc1ccc(F)cc1 |
| 190 to 192 | O=C(Nc1c(C(O)(C(F)(F)F)C(F)(F)F)ccc2ccccc12)c1cccc(F)c1 |
| 160 to 162 | O=c1cc(-c2cccs2)oc2cccc(OCCO)c12 |
| 113 to 115 | CN(Cc1cc2c3c(c1)c(=O)c(C(=O)NCc1ccc(F)cc1)cn3CC(=O)N2C)C[C@@H](O)c1cccs1 |
| 145 to 148 | CSc1sc(-c2ccn(C)n2)c2c1C(=O)C(=CO)C(C)(C)C2 |
| 164 to 166 | CCNc1nc(-c2cccc([N+](=O)[O-])c2)c2cc(OC)c(OC)cc2n1 |
| 162 to 164 | CC1(C)CCC(=O)Nc2cc(OCCCN3CCN(c4cccc(Cl)c4Cl)CC3)ccc21 |
| 124 to 125 | Cc1nc(C)c(C(C)(O)c2cocc2Br)o1 (stereo not drawn) |
| 211 to 212 | CC(C)CC1=NC=C2C=CC(=O)NC3=C2N1CC3 |
| 179 | c1ccc(C(c2ccc3[nH]nnc3c2)n2ccnc2)cc1 (stereo not drawn) |
| 114 to 116 | CN(C)C(=S)CCC(c1ccccc1)(c1ccccc1)c1ccccc1 |
| 52.5 to 54 | c1ccc(C2=N[C@@H](CCP(c3ccccc3)c3ccccc3)CO2)cc1 |
| 284 to 287 | Cc1nnc(-c2sc(N3CCN(Cc4ccccc4)C3=O)nc2C)[nH]1 |
| 159 | Cc1ccc2[nH]c(CO)cc2c1C |
| 115 to 117 | CC(C)CC1(CC(=O)NOCc2ccccc2)CC(=O)N(CCc2ccccc2)C1=O (stereo not drawn) |
| 254 to 256 | CSc1ncc(Br)c(N(C)NC(=O)c2c(Cl)cccc2Cl)n1 |
| 303 to 304 | O=C(O)c1cccc(-c2ccc3[nH]cc(-c4ccc(Cl)cc4Cl)c3c2)c1 |
| 267 to 268 | O=c1cc(-c2ccc(O)c(F)c2)oc2ncccc12 |
| 144 to 145 | COc1ccc(-c2cc(=O)c3ccc(OCC(O)CNC(C)C)cc3o2)cc1OC (stereo not drawn) |

| Compound | melting point [°C] |
| --- | --- |
| CNC(=O)Oc1ccc(NC(=O)C(F)(F)Cl)c(C)c1 | 156 to 158 |
| CC12CCC3C(CC=C4CC(O)CCC43CSSCCO)C1CCC2=O (stereo not drawn) | 129 to 130 |
| CN1CCN(c2nc(C(F)(F)F)cs2)CC1 | 62 |
| CC(=O)OCc1ncc2n1-c1ccc(Cl)cc1C(c1ccccc1F)=[N+]([O-])C2 | 203 to 205 |
